This note sets out measurements from ChEMBL document CHEMBL4052781, “Discovery and structure-activity relationship of auriculatone: A potent hepatoprotective agent against acetaminophen-induced liver injury” (Bioorg Med Chem Lett, 2017).

The source made the active and inactive calls. The calls are words filed in the database; no cut-off is given here.

Series [1] deals with L02. As to the kind of experiment: Hepatoprotective activity against APAP-induced cell injury in human HL-7702 cells assessed as increase in survival rate at 10 uM pre-incubated for 24 hrs before APAP addition and measured 6 hrs post APAP challenge by MTT assay. The class given is functional, cell-based.
Series [2] relates to L02. Description: Hepatoprotective activity against APAP-induced cell injury in human HL-7702 cells assessed as survival rate at 10 uM pre-incubated for 24 hrs before APAP addition and measured 6 hrs post APAP challenge by MTT assay (reference value: 59.13%). The format is functional. To be noted: read-out: Survival. (Tetrazolium dyes change colour on reduction, which living cells bring about.)

The test system of series [3] is L02. Description: Hepatoprotective activity against APAP-induced cell injury in human HL-7702 cells assessed as increase in survival rate at 1 uM pre-incubated for 24 hrs before APAP addition and measured 6 hrs post APAP challenge by MTT assay. The class given is functional, cell-based.
The subject of series [4] is L02. As to the kind of experiment: Hepatoprotective activity against APAP-induced cell injury in human HL-7702 cells assessed as increase in survival rate at 0.1 uM pre-incubated for 24 hrs before APAP addition and measured 6 hrs post APAP challenge by MTT assay. The class given is functional, cell-based.
In series [5] the test system is L02. As to the kind of experiment: Hepatoprotective activity against APAP-induced cell injury in human HL-7702 cells assessed as survival rate at 10 uM pre-incubated for 24 hrs before APAP addition and measured 6 hrs post APAP challenge by MTT assay (reference value: 60.49 +/- 0.28%). The format is functional. To be noted: read-out: Survival.
The test system of series [6] is L02. As to the kind of experiment: Effect on APAP-induced depletion of GSH levels in human HL-7702 cells assessed as GSH level at 10 uM by colorimetric method (reference value: 59.68 +/- 1.16 au). The class given is functional.
Series [7] concerns L02. As to the kind of experiment: Hepatoprotective activity against APAP-induced cell injury in human HL-7702 cells assessed as survival rate at 1.25 uM pre-incubated for 24 hrs before APAP addition and measured 6 hrs post APAP challenge by MTT assay (reference value: 60.49 +/- 0.28%). The class given is functional. To be noted: read-out: Survival.
Series [8] has as its system L02. As to the kind of experiment: Effect on APAP-induced depletion of GSH levels in human HL-7702 cells assessed as GSH level at 1 uM by colorimetric method (reference value: 59.68 +/- 1.16 au). The class given is functional.
Series [9] relates to L02. As to the kind of experiment: Hepatoprotective activity against APAP-induced cell injury in human HL-7702 cells assessed as survival rate at 0.625 uM pre-incubated for 24 hrs before APAP addition and measured 6 hrs post APAP challenge by MTT assay (reference value: 60.49 +/- 0.28%). The format is functional. Particulars: read-out: Survival.
The target of another series is CYP3A4 (Homo sapiens, UniProt P08684). Description: Inhibition of CYP3A4 in human HL-7702 cells assessed as assessed as remaining enzyme activity by measuring reduction in metabolic conversion of nifedipine to dehydronifedipine at 10 uM by LC-MS/MS method. The format is ADME, cell-based. Particulars: probe nifedipine, read-out: Activity.
CYP3A4, sequence (P08684 whole entry): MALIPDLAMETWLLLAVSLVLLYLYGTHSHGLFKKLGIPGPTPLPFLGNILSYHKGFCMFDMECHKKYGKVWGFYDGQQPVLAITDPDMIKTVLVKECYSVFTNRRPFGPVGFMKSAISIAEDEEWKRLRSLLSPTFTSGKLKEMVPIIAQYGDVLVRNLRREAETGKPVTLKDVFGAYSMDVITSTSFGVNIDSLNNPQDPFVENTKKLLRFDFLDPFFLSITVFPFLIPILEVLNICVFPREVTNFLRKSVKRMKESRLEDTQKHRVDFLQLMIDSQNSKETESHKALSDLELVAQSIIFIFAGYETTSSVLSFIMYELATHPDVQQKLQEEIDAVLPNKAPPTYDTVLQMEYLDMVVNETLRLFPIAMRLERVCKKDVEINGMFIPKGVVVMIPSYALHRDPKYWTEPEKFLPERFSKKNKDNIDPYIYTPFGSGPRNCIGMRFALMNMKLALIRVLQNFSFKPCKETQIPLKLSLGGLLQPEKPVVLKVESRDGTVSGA
Series [10] deals with L02. As to the kind of experiment: Hepatoprotective activity against APAP-induced cell injury in human HL-7702 cells assessed as survival rate at 2.5 uM pre-incubated for 24 hrs before APAP addition and measured 6 hrs post APAP challenge by MTT assay (reference value: 60.49 +/- 0.28%). The format is functional. To be noted: read-out: Survival.
Series [11] relates to L02. Description: Hepatoprotective activity against APAP-induced cell injury in human HL-7702 cells assessed as survival rate at 5 uM pre-incubated for 24 hrs before APAP addition and measured 6 hrs post APAP challenge by MTT assay (reference value: 60.49 +/- 0.28%). The class given is functional. To be noted: read-out: Survival.
The test system of series [12] is L02. Description: Effect on APAP-induced depletion of GSH levels in human HL-7702 cells assessed as GSH level at 0.1 uM by colorimetric method (reference value: 59.68 +/- 1.16 au). The format is functional.
The next series addresses Cytochrome P450 3A4 (Homo sapiens, UniProt P08684). As to the kind of experiment: Inhibition of CYP3A4 in human HL-7702 cells assessed as reduction in metabolic conversion of nifedipine to dehydronifedipine by LC-MS/MS method. The format is ADME, cell-based.

Cytochrome P450 3A4, sequence (P08684 whole entry): as above

For `CC1(C)CC[C@]2(C(=O)O)[C@H](O)C[C@]3(C)C(=CC[C@@H]4[C@@]5(C)CC[C@H](O)C(C)(C)[C@@H]5CC[C@]43C)[C@@H]2C1`, the Activity entry in the series on L02 [1] was “Active”.

`CC1(C)CC[C@H]2C(=O)C[C@]3(C)C(=CC[C@@H]4[C@@]5(C)CCC(=O)C(C)(C)[C@@H]5CC[C@]43C)[C@@H]2C1`: the viability at 10 µM in the series on L02 [2] worked out at 71.2%. The Activity entry in the series on L02 [1] and in the series on L02 [3] was “Active” throughout. In addition, the Activity result in the series on L02 [4] is “inactive”.

As to `CC1(C)CC[C@H]2CC[C@]3(C)C(=CC[C@@H]4[C@@]5(C)CC[C@H](O)C(C)(C)[C@@H]5CC[C@]43C)[C@@H]2C1`, the viability at 10 µM with L02 [2] was found to be 71.6%. Moreover, the Activity result with L02 [1] and with L02 [3] was “Active” throughout. In the series on L02 [4], the Activity entry is “inactive”.

In the case of `CC1(C)CC[C@]2(C(=O)O)CC[C@]3(C)C(=CC[C@@H]4[C@@]5(C)CC[C@H](O)C(C)(C)[C@@H]5CC[C@]43C)[C@@H]2C1` [OLEANOLIC_ACID], in the series on L02 [2], the viability at 10 µM is 68.5%.

`CC1(C)CC[C@]2(C(=O)O)CC[C@]3(C)C(=CC(=O)[C@@H]4[C@@]5(C)CC[C@H](O)C(C)(C)[C@@H]5CC[C@]43C)[C@@H]2C1`: the Activity result in the series with L02 [1] was “Active”.

As to `CC1(C)CC[C@H]2[C@@H](O)C[C@]3(C)C(=CC[C@@H]4[C@@]5(C)CC[C@H](O)C(C)(C)[C@@H]5CC[C@]43C)[C@@H]2C1`, in the series with L02 [2], the viability at 10 µM is 62.9%. Besides, the Activity result in the series with L02 [1] was “Active”. For the same compound, in the series on L02 [4], the Activity entry is “inactive”.

In the case of `CC(=O)N[C@@H](CS)C(=O)O` [ACETYLCYSTEINE], the Activity entry with L02 [1] is “Active”. The viability at 10 µM in the series on L02 [5] is 82.3%. In the series on L02 [6], the Activity is on record as 102.49 a.u.

As to `CC1(C)CC[C@]2(C(=O)O)CC[C@]3(C)C(=CC[C@@H]4[C@@]5(C)CCC(=O)C(C)(C)[C@@H]5CC[C@]43C)[C@@H]2C1`, the Activity result in the series on L02 [1] is “Active”.

`CC1(C)CC[C@@]23CC[C@@]4(C)[C@]5(C)CC[C@H]6C(C)(C)[C@@H](O)CC[C@]6(C)C5=CC(=O)[C@]4(OC2=O)[C@@H]3C1`: in the series with L02 [1], the Activity result is “Active”.

For the compound `CC1(C)CC[C@]2(C(=O)O)CC[C@]3(C)C(=C2C1)C=C[C@@H]1[C@@]2(C)CC[C@H](O)C(C)(C)[C@@H]2CC[C@]13C`, the Activity entry in the series with L02 [1] was “Active”.

For `CC1(C)CC[C@@H]2C(=O)C[C@]3(C)C(=CC[C@@H]4[C@@]5(C)CC[C@H](O)C(C)(C)[C@@H]5CC[C@]43C)[C@@H]2C1`, the viability at 10 µM in the series on L02 [2] fell in the range of 76 to 80%.

On to `CC1(C)CC[C@H]2[C@H](O)C[C@]3(C)C(=CC[C@@H]4[C@@]5(C)CC[C@H](O)C(C)(C)[C@@H]5CC[C@]43C)[C@@H]2C1`, for which, in the series on L02 [2], the viability at 10 µM turned out to be 65.5%. For the same compound, the Activity entry in the series with L02 [1] was “Active”. The Activity entry in the series on L02 [4] was “inactive”.

As for `CC1(C)CC[C@H]2C(=O)C[C@]3(C)C(=CC[C@@H]4[C@@]5(C)CC[C@H](O)C(C)(C)[C@@H]5CC[C@]43C)[C@@H]2C1`, in the series with L02 [7], the viability at 1.25 µM was determined as 68.6%. The Activity with L02 [8] is 55.62 a.u; in the series on L02 [12], 55.93 a.u; at Cytochrome P450 3A4, “Dose-dependent effect”; in the series with L02 [6], 54.37 a.u. Moreover, the viability at 0.625 µM in the series on L02 [9] turned out to be 66.8%. Also, the values for the viability at 10 µM with L02 [2] and in the series on L02 [5] were 78.3 to 80% and 80.1%, respectively. The activity at 10 µM on CYP3A4 is 66%. Further, the viability at 2.5 µM in the series with L02 [10] was determined as 74.5%. Further, in the series on L02 [11], the viability at 5 µM amounted to 76%. In addition, in the series on L02 [3], the Activity result is “Active”. The Activity result in the series with L02 [4] was “inactive”.

For `CC1(C)CC[C@H]2C(=O)C[C@]3(C)[C@@]4(O[C@@H]4C[C@@H]4[C@@]5(C)CC[C@H](O)C(C)(C)[C@@H]5CC[C@]43C)[C@@H]2C1`, the viability at 10 µM with L02 [2] stood at 65.7%. The Activity entry in the series on L02 [1] was “Active”. In addition, the Activity entry in the series on L02 [4] is “inactive”.

Consider `CC1(C)CC[C@]2(C(=O)O)CC[C@]3(C)C(=CC=C4[C@@]5(C)CC[C@H](O)C(C)(C)[C@@H]5CC[C@]43C)[C@@H]2C1`, for which, in the series with L02 [1], the Activity entry was “Active”.

On to `CC1(C)CC[C@]2(CO)CC[C@]3(C)C(=CC[C@@H]4[C@@]5(C)CC[C@H](O)C(C)(C)[C@@H]5CC[C@]43C)[C@@H]2C1`, for which, in the series with L02 [1], the Activity entry was “Active”.

On to `CC(=O)O[C@H]1CC[C@]2(C)[C@H]3CC=C4[C@@H]5CC(C)(C)CC[C@H]5C(=O)C[C@@]4(C)[C@]3(C)CC[C@H]2C1(C)C`, for which, in the series with L02 [2], the viability at 10 µM is 67.1%. Moreover, the Activity entry in the series with L02 [1] was “Active”. For the same compound, the Activity result with L02 [4] was “inactive”.
